Experimental data published in US8445501B2, “Substituted 7-carboxamido-pyrrolo[3,2-d]pyrimidines” (Takeda GmbH, priority 2008, dated 2013).
pIC50: −log10 of the molar value.

Target: T1, human PDE5 (Homo sapiens, UniProt O76074)
T1 construct: from tissue; host or cells: platelets from fresh blood of human donors (lysate, 10,000 g supernatant)
Experiment: Inhibition of the type 5 phosphodiesterase (PDE5) activity, modified SPA test with platelet lysate
Format: biochemical
Conditions: PDE5 from human platelet lysate, 0.5 μM cGMP
Description: Method for Measuring Inhibition of the Type 5 Phosphodiesterase (PDE5) Activity:
As a source for human PDE5, platelets are used. For that purpose, 150 ml fresh blood from human donors anticoagulated with citrate [final concentration 0.3% (w/v)] is centrifuged at 200 g for 10 min to obtain the so-called platelet-rich-plasma (PRP) as a supernatant. 1/10 volume of ACD solution (85 mM Na3-citrate, 111 mM D-glucose, 71 mM citric acid, pH 4.4) is added to 9/10 volume of PRP. After centrifugation (1,400 g, 10 min) the cell pellet is resuspended in 3 ml homogenization buffer (NaCl 140 mM, KCl 3.8 mM, EGTA (ethylene glycol tetraacetic acid) 1 mM, MgCl2 1 mM, Tris-HCl 20 mM, beta-mercaptoethanol 1 mM, pH 8.2) plus protease-inhibitor mix giving rise to the final concentrations of 0.5 mM Pefablock (Roche), 10 μM Leupeptin, 5 μM Trypsininhibitor, 2 mM Benzamidin and 10 μM Pepstatin A. The suspension is sonified and thereafter centrifuged for 15 min at 10,000 g. The resulting supernatant (platelet lysate) is used for enzymatic testings.
PDE5A1 activity is inhibited by the compounds of the invention in a modified SPA (scintillation proximity assay) test, supplied by Amersham Biosciences (see procedural instructions “phosphodiesterase [3H]cAMP SPA enzyme assay, code TRKQ 7090”), carried out in 96-well microtitre plates (MTP's). The test volume is 100 μl and contains 20 mM Tris buffer (pH 7.4), 0.1 mg of BSA (bovine serum albumin)/ml, 5 mM Mg^2+, 1 μM motapizone, 10 nM PDE2 inhibitor 2-(3,4-dimethoxybenzyl)-7-[(1R,2R)-2-hydroxy-1-(2-phenylethyl)propyl]-5-methylimidazo[5,1-f][1,2,4]triazin-4(3H)-one, 0.5 μM cGMP (cyclic guanosine monophosphate) (including about 50,000 cpm of [3H]cGMP as a tracer), 1 μl of the respective compound dilution in dimethylsulfoxide (DMSO) and sufficient PDE5-containing platelet lysat (10,000×g supernatant, see above) to ensure that 10-20 wt % of the cGMP is converted under the said experimental conditions. […] After a preincubation of 5 min at 37° C., the reaction is started by adding the substrate (cGMP) and the assay is incubated for a further 15 min; after that, it is stopped by adding SPA beads (50 μl). In accordance with the manufacturer's instructions, the SPA beads had previously been resuspended in water, but are then diluted 1:3 (v/v) in water; the diluted solution also contains 3 mM […] (IBMX) to ensure a complete PDE activity stop. After the beads have been sedimented (>30 min), the MTP's are analyzed in commercially available luminescence detection de-vices. The corresponding IC50 values of the compounds for the inhibition of PDE activity are deter-mined from the concentration-effect curves by means of non-linear regression.

SMILES	pIC50
COCC(=O)N1CCC(CNC(=O)c2c[nH]c3c(-c4c(OCC5CC5)ccc5c4OCO5)ncnc23)C1 (stereo not drawn) [Example 33, 4-(5-Cyclopropylmethoxy-benzo[1,3]dioxol-4-yl)-5H-pyrrolo[3,2-d]pyrimidine-7-carboxylic acid [1-(2-methoxy-acetyl)-pyrrolidin-3-ylmethyl]-amide]	8.82
CCOC(=O)N1CCC(CNC(=O)c2c[nH]c3c(-c4c(OCC5CC5)ccc5c4OCO5)ncnc23)C1 (stereo not drawn) [Example 34, 3-({[4-(5-Cyclopropylmethoxy-benzo[1,3]dioxol-4-yl)-5H-pyrrolo[3,2-d]pyrimidine-7-carbonyl]-amino}-methyl)-pyrrolidine-1-carboxylic acid ethyl ester]	9.46
O=CN1CCOC(CNC(=O)c2c[nH]c3c(-c4c(OCC5CC5)ccc5c4OCO5)ncnc23)C1 (stereo not drawn) [Example 35, 4-(5-Cyclopropylmethoxy-benzo[1,3]dioxol-4-yl)-5H-pyrrolo[3,2-d]pyrimidine-7-carboxylic acid (4-formyl-morpholin-2-ylmethyl)-amide]	9.15
CCC(=O)N1CCOC(CNC(=O)c2c[nH]c3c(-c4c(OCC5CC5)ccc5c4OCO5)ncnc23)C1 (stereo not drawn) [Example 36, 4-(5-Cyclopropylmethoxy-benzo[1,3]dioxol-4-yl)-5H-pyrrolo[3,2-d]pyrimidine-7-carboxylic acid (4-propionyl-morpholin-2-ylmethyl)-amide]	9.31
COCC(=O)N1CCOC(CNC(=O)c2c[nH]c3c(-c4c(OCC5CC5)ccc5c4OCO5)ncnc23)C1 (stereo not drawn) [Example 37, 4-(5-Cyclopropylmethoxy-benzo[1,3]dioxol-4-yl)-5H-pyrrolo[3,2-d]pyrimidine-7-carboxylic acid [4-(2-methoxy-acetyl)morpholin-2-ylmethyl]-amide]	9.04
CCOC(=O)N1CCOC(CNC(=O)c2c[nH]c3c(-c4c(OCC5CC5)ccc5c4OCO5)ncnc23)C1 (stereo not drawn) [Example 38, 2-({[4-(5-Cyclopropylmethoxy-benzo[1,3]dioxol-4-yl)-5H-pyrrolo[3,2-d]pyrimidine-7-carbonyl]-amino}-methyl)-morpholine-4-carboxylic acid ethyl ester]	9.40
CC(=O)N1CC(NC(=O)c2c[nH]c3c(-c4c(OCC5CC5)ccc5c4OCO5)ncnc23)C1 [Example 39, 4-(5-Cyclopropylmethoxy-benzo[1,3]dioxol-4-yl)-5H-pyrrolo[3,2-d]pyrimidine-7-carboxylic acid (1-acetyl-azetidin-3-yl)-amide]	9.11
CCC(=O)N1CC(NC(=O)c2c[nH]c3c(-c4c(OCC5CC5)ccc5c4OCO5)ncnc23)C1 [Example 40, 4-(5-Cyclopropylmethoxy-benzo[1,3]dioxol-4-yl)-5H-pyrrolo[3,2-d]pyrimidine-7-carboxylic acid (1-propionyl-azetidin-3-yl)-amide]	9.37
COCC(=O)N1CC(NC(=O)c2c[nH]c3c(-c4c(OCC5CC5)ccc5c4OCO5)ncnc23)C1 [Example 41, 4-(5-Cyclopropylmethoxy-benzo[1,3]dioxol-4-yl)-5H-pyrrolo[3,2-d]pyrimidine-7-carboxylic acid [1-(2-methoxy-ethanoyl)-azetidin-3-yl]amide]	9.05
CCOC(=O)N1CC(NC(=O)c2c[nH]c3c(-c4c(OCC5CC5)ccc5c4OCO5)ncnc23)C1 [Example 42, 3-({1-[4-(5-Cyclopropylmethoxy-benzo[1,3]dioxol-4-yl)-5H-pyrrolo[3,2-d]pyrimidin-7-yl]-methanoyl}-amino)-azetidine-1-carboxylic acid ethyl ester]	9.72
O=CN1CCC(NC(=O)c2c[nH]c3c(-c4c(OCC5CC5)ccc5c4OCO5)ncnc23)CC1 [Example 43, 4-(5-Cyclopropylmethoxy-benzo[1,3]dioxol-4-yl)-5H-pyrrolo[3,2-d]pyrimidine-7-carboxylic acid (1-formyl-piperidin-4-yl)-amide]	9.55
CCC(=O)N1CCC[C@H](NC(=O)c2c[nH]c3c(-c4c(OCC5CC5)ccc5c4OCO5)ncnc23)C1 [Example 44, 4-(5-Cyclopropylmethoxy-benzo[1,3]dioxol-4-yl)-5H-pyrrolo[3,2-d]pyrimidine-7-carboxylic acid ((S)-1-propionyl-piperidin-3-yl)-amide]	9.10
COCC(=O)N1CCC[C@H](NC(=O)c2c[nH]c3c(-c4c(OCC5CC5)ccc5c4OCO5)ncnc23)C1 [Example 45, 4-(5-Cyclopropylmethoxy-benzo[1,3]dioxol-4-yl)-5H-pyrrolo[3,2-d]pyrimidine-7-carboxylic acid [(S)-1-(2-methoxy-ethanoyl)-piperidin-3-yl]amide]	8.81
CC(=O)N1CCC[C@H](NC(=O)c2c[nH]c3c(-c4c(OCC5CC5)ccc5c4OCO5)ncnc23)C1 [Example 46, 4-(5-Cyclopropylmethoxy-benzo[1,3]dioxol-4-yl)-5H-pyrrolo[3,2-d]pyrimidine-7-carboxylic acid ((S)-1-acetyl-piperidin-3-yl)-amide]	8.86
COCC(=O)N1CCC[C@@H](NC(=O)c2c[nH]c3c(-c4c(OCC5CC5)ccc5c4OCO5)ncnc23)C1 [Example 48, 4-(5-Cyclopropylmethoxy-benzo[1,3]dioxol-4-yl)-5H-pyrrolo[3,2-d]pyrimidine-7-carboxylic acid [(R)-1-(2-methoxy-ethanoyl)-piperidin-3-yl]amide]	9.37
CC(=O)N1CCC[C@@H](NC(=O)c2c[nH]c3c(-c4c(OCC5CC5)ccc5c4OCO5)ncnc23)C1 [Example 49, 4-(5-Cyclopropylmethoxy-benzo[1,3]dioxol-4-yl)-5H-pyrrolo[3,2-d]pyrimidine-7-carboxylic acid ((R)-1-acetyl-piperidin-3-yl)-amide]	9.47
COCC(=O)N[C@H]1CC[C@H](NC(=O)c2c[nH]c3c(-c4c(OCC5CC5)ccc5c4OCO5)ncnc23)CC1 [Example 50, trans-4-(5-Cyclopropylmethoxy-benzo[1,3]dioxol-4-yl)-5H-pyrrolo[3,2-d]pyrimidine-7-carboxylic acid [4-(2-methoxy-acetylamino)-cyclohexyl]-amide]	9.85
COc1ccc(-c2ncnc3c(C(=O)N[C@H]4CC[C@H](NC(C)=O)CC4)c[nH]c23)c(OCC2CC2)c1 [Example 51, trans-4-(2-Cyclopropylmethoxy-4-methoxy-phenyl)-5H-pyrrolo[3,2-d]pyrimidine-7-carboxylic acid (4-acetylamino-cyclohexyl)-amide]	9.31
COc1ccc(-c2ncnc3c(C(=O)N[C@H]4CC[C@H](NC(=O)C5CC5)CC4)c[nH]c23)c(OCC2CC2)c1 [Example 52, trans-4-(2-Cyclopropylmethoxy-4-methoxy-phenyl)-5H-pyrrolo[3,2-d]pyrimidine-7-carboxylic acid [4-(cyclopropanecarbonyl-amino)cyclohexyl]-amide]	9.52
COCC(=O)N[C@H]1CC[C@H](NC(=O)c2c[nH]c3c(-c4ccc(OC)cc4OCC4CC4)ncnc23)CC1 [Example 53, trans-4-(2-Cyclopropylmethoxy-4-methoxy-phenyl)-5H-pyrrolo[3,2-d]pyrimidine-7-carboxylic acid [4-(2-methoxy-acetylamino)-cyclohexyl]-amide]	9.43
CCOC(=O)N[C@H]1CC[C@H](NC(=O)c2c[nH]c3c(-c4ccc(OC)cc4OCC4CC4)ncnc23)CC1 [Example 54, trans-(4-{[4-(2-Cyclopropylmethoxy-4-methoxy-phenyl)-5H-pyrrolo[3,2-d]pyrimidine-7-carbonyl]-amino}-cyclohexyl)-carbamic acid ethyl ester]	9.38
